Source: patent US20230150951A1, “2,5- OR 2,6-DISUBSTITUTED HYDROQUINONE DERIVATIVES WITH AT LEAST ONE CARBOXY, SULFO OR AMIDO GROUP USEFUL AS MEDICAMENTS” (OM PHARMA SA, priority 2020, published 2023)
Read-outs that look alike come from different tables or passages of the source.

Legend:
Format in all cases: cell-based
[1] = test system: IL-10; assay: Cytokine release after LPS induction on human whole blood: IL-10
Method: (§1) Aim of this in vitro method is to assess compounds effects on release of a panel of cytokines from whole blood following lipopolysaccharide (LPS) induced inflammatory reaction. Whole blood was incubated with compounds for 1 h prior to LPS induction. Cytokine levels in blood were measured using a multiplex FACS-based panel.
(§2) IC50 values determined for the tested compounds expressed in microM [μM] and the values for the inhibition of cytokines were listed for each compound.
(§3) Effect on cytokines release after LPS induction was performed on the compounds dissolved in DMSO or H2O to reach 10-fold concentrated stock solutions and dissolved in culture media.
(§4) Test system: Whole blood was removed from a single donor (into lithium heparin coated tubes; BD Vacutainer; 367886) and diluted 1:5 with RPMI 1640 (Thermo Fisher, 61870036). Within 30 minutes of sampling, blood was incubated with compounds for 1 h prior to LPS stimulation (O111:B4—Sigma L4391; 10 ng/ml final concentration). Stimulation continued under standard cell culture conditions (37° C. with 5% CO2) overnight (18 h), after which plates were centrifuged and supernatant removed and frozen at −80° C. until used for analyses.
(§5) Dilution of test compounds: 10×concentrated solutions (concerning to the final assay concentrations) of each test compound were prepared with the appropriate solvent (in DMSO or in water). These 10× compound solutions (10 μl) were then added to 90 μl pre-diluted whole blood (whole blood: RPMI1640, 1:5) resulting in the final assay concentration.
(§6) Test method: Diluted whole blood (80 μl) was pre-incubated with compounds (10 μl) to give final assay concentrations of 100, 30, 10, 3, 1, 0.3 and 0.1×10^−6M. Blood was incubated at 37° C. with 5% CO2 for 1 h. LPS was diluted in cell culture media to a concentration of […]; 10 μl was added to the whole blood to give a final concentration of 10 ng/ml. Plates were incubated at 37° C. for 18 h. Plates were centrifuged at 3,000 RPM for 5 minutes at 4° C. and supernatant removed and frozen at −80° C. until FACS analysis was carried out.
(§7) Cytokine release was measured using a custom multiplex system (ELISA Genie) according to manufacturers instructions. Prepared samples were run on an Attune NxT flow cytometer (Thermo Fisher).
(§8) Quantification of cytokine release inhibition: known concentration standards were run as part of the cytokine panel to allow quantification of each cytokine concentration in each sample. This was carried out using FCAP Array v3.0 software.
(§9) Results: The dose response relationship on cytokine release following LPS induction of inflammatory response in whole blood was assessed for all compounds. IC50 values were determined for each compound for a panel of cytokines (GM-CSF, IFN-gamma, IL-1beta, IL-2, IL-4, IL-5, IL-6, IL-8, IL-9, IL-10, IL-12p40, IL-13, IL-17A, IL-17F, IL-18, IL-21, IL-22, IL-33, TGF-beta, TNF-alpha, TNF-beta).

[2] = target: T1, VEGFR-2 (Homo sapiens, UniProt P35968); assay: VEGF-165 induced phosphorylation of VEGF-Receptor on HUVEC; conditions: HUVEC preincubated 60 min, VEGF165 25 ng/mL 2 min; read-out: VEGFR-Phosphorylation inhibition IC50
T1 construct: endogenous in cells; host or cells: primary HUVEC
T1 sequence (P35968 20-1356): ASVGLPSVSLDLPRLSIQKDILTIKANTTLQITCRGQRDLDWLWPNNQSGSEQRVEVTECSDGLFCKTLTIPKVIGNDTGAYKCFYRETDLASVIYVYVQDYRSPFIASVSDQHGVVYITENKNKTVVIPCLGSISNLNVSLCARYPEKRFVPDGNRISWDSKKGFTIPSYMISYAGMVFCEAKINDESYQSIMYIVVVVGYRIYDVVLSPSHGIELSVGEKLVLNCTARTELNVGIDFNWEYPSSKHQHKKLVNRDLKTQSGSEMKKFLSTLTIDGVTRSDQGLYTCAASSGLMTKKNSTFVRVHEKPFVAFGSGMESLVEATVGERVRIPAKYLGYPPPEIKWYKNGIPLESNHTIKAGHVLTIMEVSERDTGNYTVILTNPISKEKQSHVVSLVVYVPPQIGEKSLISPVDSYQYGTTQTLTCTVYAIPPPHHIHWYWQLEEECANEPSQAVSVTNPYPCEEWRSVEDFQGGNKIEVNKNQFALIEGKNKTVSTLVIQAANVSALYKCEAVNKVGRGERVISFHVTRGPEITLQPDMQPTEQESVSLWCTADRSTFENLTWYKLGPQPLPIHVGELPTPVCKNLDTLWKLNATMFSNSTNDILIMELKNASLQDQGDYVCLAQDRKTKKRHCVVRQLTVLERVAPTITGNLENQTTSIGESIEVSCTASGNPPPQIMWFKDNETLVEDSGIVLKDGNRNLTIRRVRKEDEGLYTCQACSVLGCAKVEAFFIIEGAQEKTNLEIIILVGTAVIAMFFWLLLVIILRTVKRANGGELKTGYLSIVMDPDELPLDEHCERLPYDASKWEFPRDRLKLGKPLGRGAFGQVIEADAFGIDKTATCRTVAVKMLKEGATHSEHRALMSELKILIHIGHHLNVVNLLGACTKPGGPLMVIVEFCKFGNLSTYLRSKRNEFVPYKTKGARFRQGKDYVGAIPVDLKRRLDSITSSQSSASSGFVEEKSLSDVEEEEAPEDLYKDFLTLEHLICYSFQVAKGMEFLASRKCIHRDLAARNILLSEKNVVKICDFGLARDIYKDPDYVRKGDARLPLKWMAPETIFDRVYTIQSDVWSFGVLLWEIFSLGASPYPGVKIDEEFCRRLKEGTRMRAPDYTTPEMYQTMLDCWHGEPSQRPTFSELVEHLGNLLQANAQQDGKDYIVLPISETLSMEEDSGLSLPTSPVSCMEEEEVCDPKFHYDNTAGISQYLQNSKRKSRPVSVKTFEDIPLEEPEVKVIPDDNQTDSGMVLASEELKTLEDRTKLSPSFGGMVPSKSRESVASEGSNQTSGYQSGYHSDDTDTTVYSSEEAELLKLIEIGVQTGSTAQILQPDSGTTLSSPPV

[3] = test system: Human neutrophils; assay: Inhibition of ROS production in human neutrophils (isoluminol chemiluminescence); conditions: Homo sapiens, Neutrophil, fMLP+TNF-α stimulated PMN
Procedure, shortened: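 Neutrophils from healthy-donor buffy coats (3×10^6/ml in HBSS with Ca/Mg) pre-incubated 30 min at 37° C with compound (0.1–10 μM), primed with TNF-α 20 ng/ml for 10 min, then added to fibrinogen-coated wells. Isoluminol/HRP chemiluminescence recorded every 25 sec for 250 sec after fMLP (1 μM), background-subtracted.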

[4] = test system: IL-21; assay: Cytokine release after LPS induction on human whole blood: IL-21
Method: as §1, §2, §3, §4, §5, §6, §7, §8, §9

[5] = test system: TGF-beta; assay: Cytokine release after LPS induction on human whole blood: TGFβ
Method: as §1, §2, §3, §4, §5, §6, §7, §8, §9

[6] = test system: IFN-gamma; assay: Cytokine release after LPS induction on human whole blood: IFNγ
Method: as §1, §2, §3, §4, §5, §6, §7, §8, §9

[7] = test system: IL-9; assay: Cytokine release after LPS induction on human whole blood: IL-9
Method: as §1, §2, §3, §4, §5, §6, §7, §8, §9

[8] = test system: IL-1beta; assay: Cytokine release after LPS induction on human whole blood: IL-1β
Method: as §1, §2, §3, §4, §5, §6, §7, §8, §9

[9] = Homo sapiens, LPS 10 ng/ml, 18 h, read-out: Whole Blood: IL-10 IC50
[10] = human whole blood, inhibition of LPS induced inflammation, read-out: IC50 IL-10
[11] = Homo sapiens, LPS 10 ng/ml, 18 h, read-out: Whole Blood: IL-21 IC50
[12] = human whole blood, inhibition of LPS induced inflammation, read-out: IC50 IL-21
[13] = Homo sapiens, LPS 10 ng/ml, 18 h, read-out: Whole Blood: TGFβ IC50
[14] = human whole blood, inhibition of LPS induced inflammation, read-out: IC50 TGFbeta
[15] = Homo sapiens, LPS 10 ng/ml, 18 h, read-out: Whole Blood: IFNγ IC50
[16] = human whole blood, inhibition of LPS induced inflammation, read-out: IC50 IFNγ
[17] = Homo sapiens, LPS 10 ng/ml, 18 h, read-out: Whole Blood: IL-9 IC50
[18] = human whole blood, inhibition of LPS induced inflammation, read-out: IC50 IL-9
[19] = Homo sapiens, LPS 10 ng/ml, 18 h, read-out: Whole Blood: IL-1β IC50
[20] = human whole blood, inhibition of LPS induced inflammation, read-out: IC50 IL-1b

| SMILES | IC50 [1, 9] [µM] | IC50 [1, 10] [µM] | IC50 [2] [µM] | inhibition at 0.3 µM [3] [%] | IC50 [3] [µM] | IC50 [4, 11] [µM] | IC50 [4, 12] [µM] | IC50 [5, 13] [µM] | IC50 [5, 14] [µM] | IC50 [6, 15] [µM] | IC50 [6, 16] [µM] | IC50 [7, 17] [µM] | IC50 [7, 18] [µM] | IC50 [8, 19] [µM] | IC50 [8, 20] [µM] | other results |
| --- | --- | --- | --- | --- | --- | --- | --- | --- | --- | --- | --- | --- | --- | --- | --- | --- |
| O=C(O)c1cc(NC(=O)c2cc(O)c(C(=O)O)cc2O)cc(C(=O)O)c1 [Ia-015a, 5-(4-carboxy-2,5-dihydroxybenzamido)isophthalic acid] | 5.27 | 5.27 | 0.15 | 43.8 | 0.387 | 57.2 | 57.2 | > 100 | 100 | > 100 | 100 | 1.47 | 1.47 | > 100 | 100 | – |
| O=C(O)c1cc(NC(=O)c2cc(O)cc(C(=O)Nc3ccc(O)c(C(=O)O)c3)c2O)ccc1O [IIc-007a, 5-(3-(3-carboxy-4-hydroxyphenylaminocarbonyl)-2,5-dihydroxybenzamido)-2-hydroxy benzoic acid] | 17.9 | 17.9 | 0.44 | 93 | – | 9.41 | 9.41 | > 100 | 100 | 0.11 | 0.11 | 2.14 | 2.14 | > 100 | 100 | – |
| O=C(O)c1cc(O)c(CN(Cc2cc(O)c(C(=O)O)cc2O)Cc2cc(O)c(C(=O)O)cc2O)cc1O [IIIc-061a, Tris(4-carboxy-2,5-dihydroxyphenylmethyl)amine] | 17.9 | 17.9 | 4.3 | 92.5 | – | 6.38 | 6.38 | > 100 | 100 | 2.48 | 2.48 | 8.85 | 8.85 | > 100 | 100 | – |
| CCOC(=O)c1cc(NC(=O)c2cc(O)c(C(=O)OCC)cc2O)cc(NC(=O)c2cc(O)c(C(=O)OCC)cc2O)c1 [Ib-010a-E3, ethyl 3,5-bis(2,5-dihydroxy-4-ethoxycarbonylbenzoylamino)benzoate] | > 100 | 100 | 0.09 | 36.4 | 6.52 | > 100 | 100 | > 100 | 100 | 2.79 | 2.79 | 26.8 | 26.8 | > 100 | 100 | – |
| O=C(O)c1cc(O)cc(CS(=O)(=O)Cc2cc(O)cc(C(=O)O)c2O)c1O [IVc-059a, 3-((2,5-Dihydroxy-3-carboxyphenyl)methylsulfonylmethyl)-2,5-dihydroxybenzoic acid] | 1.31 | 1.31 | 4.8 | 74 | 0.147 | 1.87 | 1.87 | > 100 | 100 | 4.34 | 4.34 | 0.4 | 0.4 | 38.6 | 38.6 | – |
| O=C(O)c1cc(O)ccc1NC(=O)c1cc(O)cc(C(=O)Nc2ccc(O)cc2C(=O)O)c1O [IIc-009a, 2-(3-(2-carboxy-4-hydroxyphenylaminocarbonyl)-2,5-dihydroxybenzamido)-5-hydroxyl benzoic acid] | 11.3 | 11.3 | 1.7 | 75.3 | – | 8.01 | 8.01 | > 100 | 100 | 0.54 | 0.54 | 18.9 | 18.9 | > 100 | 100 | – |
| O=C(O)c1cc(NC(=O)c2cc(O)c(C(=O)Nc3ccccc3-c3nnn[nH]3)cc2O)ccc1O [Ic-001a-Tz/004a, 5-(4-(2-(1H-tetrazol-5-yl)phenylaminocarbonyl)-2,5-dihydroxybenzamido)-2-hydroxy benzoic acid] | – | – | 2.6 | 82.8 | – | – | – | – | – | – | – | – | – | – | – | IC50 ([1]; Homo sapiens, 18 h, read-out: Whole Blood: IL-10 IC50): 19.5 µM; IC50 ([1]; Homo sapiens, read-out: IC50 IL-10): 19.5 µM; IC50 ([4]; Homo sapiens, 18 h, read-out: Whole Blood: IL-21 IC50): 0.3 µM; IC50 ([4]; Homo sapiens, read-out: IC50 IL-21): 0.3 µM; IC50 ([5]; Homo sapiens, 18 h, read-out: Whole Blood: TGFβ IC50): > 100 µM; IC50 ([5]; Homo sapiens, read-out: IC50 TGFbeta): 100 µM; IC50 ([6]; Homo sapiens, 18 h, read-out: Whole Blood: IFNγ IC50): 0.61 µM; IC50 ([6]; Homo sapiens, read-out: IC50 IFNγ): 0.61 µM; IC50 ([7]; Homo sapiens, 18 h, read-out: Whole Blood: IL-9 IC50): 8.48 µM; IC50 ([7]; Homo sapiens, read-out: IC50 IL-9): 8.48 µM; IC50 ([8]; Homo sapiens, 18 h, read-out: Whole Blood: IL-1β IC50): > 100 µM; IC50 ([8]; Homo sapiens, read-out: IC50 IL-1b): 100 µM |
| O=C(O)Cc1cc(O)c(C(=O)Nc2c(C(=O)O)cccc2C(=O)O)cc1O [IIIa-013a, 2-(4-(carboxymethyl)-2,5-dihydroxybenzamido)isophthalic acid] | 37.3 | 37.3 | 1.3 | 76.5 | – | 1.63 | 1.63 | > 100 | 100 | 0.15 | 0.15 | 11.9 | 11.9 | > 100 | 100 | – |
